From patent publication US20140296266A1, “THERAPEUTIC COMPOUNDS” (Gilead Sciences, Inc., priority 2013, published 2014)

Tests used:
HIV-IIIb = assay: Test A: Antiviral Assay in MT4 Cells; type: cell-based, HIV-1; details: MT-4 cells mixed with HIV-IIIb (m.o.i. 0.003), 5 days, CellTiter-Glo, calculated from the dose response curve; for inhibition at 2 µM: Human immunodeficiency virus 1, IIIB, MT4, 120 h, read-out: % inhibition at 2 μM (percent inhibition of virus-induced cell killing), 2 μM drug concentration
Experimental: (§1) For the antiviral assay, 40 μL of 1× test concentration of 3-fold serially diluted compound in culture medium with 10% FBS was added to each well of a 384-well plate (10 concentrations) in quadruplicate. MT-4 cells were next mixed with HIV-IIIb at an m.o.i of 0.003 for 1 hour, after which time 35 μL of virus/cell mixture (2000 cells) was immediately added to each well containing 40 μL of diluted compound. The plates were then incubated at 37° C. for 5 days. After 5 days of incubation, 25 μl of 2× concentrated CellTiter-Glo™ Reagent (catalog #G7571, Promega Biosciences, Inc., Madison, Wis.) was added to each well containing MT-4 cells. Cell lysis was carried out by incubating at room temperature for 10 min and then chemiluminescence was read.

[1] = Test B: Cytotoxicity Assay; type: cell-based; details: human, uninfected MT-4 cells, same protocol as Test A, CellTiter-Glo
Experimental: as §1
Compound cytotoxicity and the corresponding CC50 values was determined using the same protocol as described in the antiviral assay (Test A) except that uninfected cells were used.

Question: What does the source list for `NC(=O)c1ccc(-c2cnc3[nH]ccc3c2)c([C@H](Cc2cc(F)cc(F)c2)NC(=O)Cn2nc(C(F)F)c3c2C(F)(F)CCC3(F)F)n1` [Compound 1B, (S)-6-(1-(2-(3-(difluoromethyl)-4,4,7,7-tetrafluoro-4,5,6,7-tetrahydro-1H-indazol-1-yl)acetamido)-2-(3,5-difluorophenyl)ethyl)-5-(1H-pyrrolo[2,3-b]pyridin-5-yl)picolinamide]?
Answer: inhibition at 2 µM (HIV-IIIb): 77%; CC50 at 5 days [1]: 8.57 µM

Question: Which inhibition at 2 µM (HIV-IIIb) does the source give for `CC(C)(O)C#Cc1ccc(-c2cccc3c(=O)[nH]cnc23)c([C@H](Cc2cc(F)cc(F)c2)NC(=O)Cn2nc(C(F)(F)F)c3c2C(F)(F)[C@@H]2C[C@H]32)n1` [Compound 2, 2-((3bS,4aR)-5,5-difluoro-3-(trifluoromethyl)-3b,4,4a,5-tetrahydro-1H-cyclopropa[3,4]cyclopenta[1,2-c]pyrazol-1-yl)-N—((S)-2-(3,5-difluorophenyl)-1-(6-(3-hydroxy-3-methylbut-1-yn-1-yl)-3-(4-oxo-3,4-dihydroquinazolin-8-yl)pyridin-2-yl)ethyl)acetamide] here?
Answer: 90%

Question: And the CC50 at 5 days [1]?
Answer: 14.3 µM

Question: With `CC(C)(O)C#Cc1ccc(-c2ccc3c(c2)C(=O)NC32CC2)c([C@H](Cc2cc(F)cc(F)c2)NC(=O)Cn2nc(C(F)(F)F)c3c2C(F)(F)[C@@H]2C[C@H]32)n1` [Compound 3D, 2-((3bS,4aR)-5,5-difluoro-3-(trifluoromethyl)-3b,4,4a,5-tetrahydro-1H-cyclopropa[3,4]cyclopenta[1,2-c]pyrazol-1-yl)-N—((S)-2-(3,5-difluorophenyl)-1-(6-(3-hydroxy-3-methylbut-1-yn-1-yl)-3-(3′-oxospiro[cyclopropane-1,1′-isoindolin]-5′-yl)pyridin-2-yl)ethyl)acetamide] as the molecule, how does the inhibition at 2 µM (HIV-IIIb) read?
Answer: 82%

Question: What about the CC50 at 5 days [1] of the same molecule?
Answer: 4.15 µM

Question: With `CC(C)(O)C#Cc1cnc([C@H](Cc2cc(F)cc(F)c2)NC(=O)Cn2nc(C(F)F)c3c2C(F)(F)CCC3(F)F)c(-c2ccc3c(c2)C(=O)NC3)c1` [Compound 4H, (S)-2-(3-(difluoromethyl)-4,4,7,7-tetrafluoro-4,5,6,7-tetrahydro-1H-indazol-1-yl)-N-(2-(3,5-difluorophenyl)-1-(5-(3-hydroxy-3-methylbut-1-ynyl)-3-(3-oxoisoindolin-5-yl)pyridin-2-yl)ethyl)acetamide] as the molecule, how does the inhibition at 2 µM (HIV-IIIb) read?
Answer: 74%

Question: What about the CC50 at 5 days [1] of the same molecule?
Answer: 22.8 µM

Question: With `NC(=O)c1cc(-c2ccc(-c3ccc(F)c(C(N)=O)c3)c([C@H](Cc3cc(F)cc(F)c3)NC(=O)Cn3nc(C(F)F)c4c3C(F)(F)CCC4(F)F)n2)ccc1F` [Compound 5G, (S)-5,5′-(6-(1-(2-(3-(difluoromethyl)-4,4,7,7-tetrafluoro-4,5,6,7-tetrahydro-1H-indazol-1-yl)acetamido)-2-(3,5-difluorophenyl)ethyl)pyridine-2,5-diyl)bis(2-fluorobenzamide)] as the molecule, how does the CC50 at 5 days [1] read?
Answer: > 53.2 µM

Question: With `O=C(Cn1nc(C(F)F)c2c1C(F)(F)CCC2(F)F)N[C@@H](Cc1cc(F)cc(F)c1)c1nc(-c2ccc3c(c2)C(=O)NC3)ccc1-c1ccc2c(c1)C(=O)NC2` [Compound 6, (S)—N-(1-(3,6-bis(3-oxoisoindolin-5-yl)pyridin-2-yl)-2-(3,5-difluorophenyl)ethyl)-2-(3-(difluoromethyl)-4,4,7,7-tetrafluoro-4,5,6,7-tetrahydro-1H-indazol-1-yl)acetamide] as the molecule, how does the inhibition at 2 µM (HIV-IIIb) read?
Answer: 73%

Question: What about the CC50 at 5 days [1] of the same molecule?
Answer: > 53.2 µM

Question: What does the source list for `O=C(Cn1nc(C(F)F)c2c1C(F)(F)CCC2(F)F)N[C@@H](Cc1cc(F)cc(F)c1)c1nc(-c2cnc3[nH]ccc3c2)ccc1-c1cnc2[nH]ccc2c1` [Compound 7, (S)—N-(1-(3,6-bis(1H-pyrrolo[2,3-b]pyridin-5-yl)pyridin-2-yl)-2-(3,5-difluorophenyl)ethyl)-2-(3-(difluoromethyl)-4,4,7,7-tetrafluoro-4,5,6,7-tetrahydro-1H-indazol-1-yl)acetamide]?
Answer: inhibition at 2 µM (HIV-IIIb): 92%; CC50 at 5 days [1]: 5.66 µM

Question: Which inhibition at 2 µM (HIV-IIIb) does the source give for `COc1cc(-c2ccc(-c3ccc4c(c3)C(=O)NC4)c([C@H](Cc3cc(F)cc(F)c3)NC(=O)Cn3nc(C(F)F)c4c3C(F)(F)CCC4(F)F)n2)ccn1` [Compound 8C, (S)-2-(3-(difluoromethyl)-4,4,7,7-tetrafluoro-4,5,6,7-tetrahydro-1H-indazol-1-yl)-N-(2-(3,5-difluorophenyl)-1-(2′-methoxy-5-(3-oxoisoindolin-5-yl)-[2,4′-bipyridin]-6-yl)ethyl)acetamide] here?
Answer: 86%

Question: And the CC50 at 5 days [1]?
Answer: 22 µM

Question: For `CC(C)(O)C#Cc1ccc(-c2ccc3c(c2)C(=O)NC3)c([C@H](Cc2cc(F)cc(F)c2)NC(=O)Cn2nc(C(F)F)c3c2C(F)(F)CCC3(F)F)n1` [Compound 9B, (S)-2-(3-(difluoromethyl)-4,4,7,7-tetrafluoro-4,5,6,7-tetrahydro-1H-indazol-1-yl)-N-(2-(3,5-difluorophenyl)-1-(6-(3-hydroxy-3-methylbut-1-yn-1-yl)-3-(3-oxoisoindolin-5-yl)pyridin-2-yl)ethyl)acetamide], which inhibition at 2 µM (HIV-IIIb) is on record?
Answer: 95%

Question: And the CC50 at 5 days [1]?
Answer: 14.6 µM

Question: For `O=C(Cn1nc(C(F)F)c2c1C(F)(F)CCC2(F)F)N[C@@H](Cc1cc(F)cc(F)c1)c1ncc(-c2ccc3c(c2)C(=O)NC3)cc1-c1ccc2c(c1)C(=O)NC2` [Compound 10B, (S)—N-(1-(3,5-bis(3-oxoisoindolin-5-yl)pyridin-2-yl)-2-(3,5-difluorophenyl)ethyl)-2-(3-(difluoromethyl)-4,4,7,7-tetrafluoro-4,5,6,7-tetrahydro-1H-indazol-1-yl)acetamide], which inhibition at 2 µM (HIV-IIIb) is on record?
Answer: 85%

Question: What about the CC50 at 5 days [1] of the same molecule?
Answer: > 53.2 µM

Question: For `O=C(Cn1nc(C(F)F)c2c1C(F)(F)CCC2(F)F)N[C@@H](Cc1cc(F)cc(F)c1)c1ncc(-c2cnc3[nH]ccc3c2)cc1-c1cnc2[nH]ccc2c1` [Compound 11, (S)—N-(1-(3,5-di(1H-pyrrolo[2,3-b]pyridin-5-yl)pyridin-2-yl)-2-(3,5-difluorophenyl)ethyl)-2-(3-(difluoromethyl)-4,4,7,7-tetrafluoro-4,5,6,7-tetrahydro-1H-indazol-1-yl)acetamide], which inhibition at 2 µM (HIV-IIIb) is on record?
Answer: 66%

Question: What about the CC50 at 5 days [1] of the same molecule?
Answer: > 53.2 µM

Question: Which inhibition at 2 µM (HIV-IIIb) does the source give for `O=C(Cn1nc(C(F)F)c2c1C(F)(F)CCC2(F)F)N[C@@H](Cc1cc(F)cc(F)c1)c1nc(-c2cc[nH]c(=O)c2)ccc1-c1ccc2c(c1)C(=O)NC2` [Compound 12, (S)-2-(3-(difluoromethyl)-4,4,7,7-tetrafluoro-4,5,6,7-tetrahydro-1H-indazol-1-yl)-N-(2-(3,5-difluorophenyl)-1-(2′-oxo-5-(3-oxoisoindolin-5-yl)-1′,2′-dihydro-[2,4′-bipyridin]-6-yl)ethyl)acetamide] here?
Answer: 58%

Question: And the CC50 at 5 days [1]?
Answer: > 53.2 µM

Question: For `O=C(Cn1nc(C(F)F)c2c1C(F)(F)CCC2(F)F)N[C@@H](Cc1cc(F)cc(F)c1)c1nc(-c2cc[nH]c(=O)c2)ccc1-c1cc[nH]c(=O)c1` [Compound 13, (S)-2-(3-(difluoromethyl)-4,4,7,7-tetrafluoro-4,5,6,7-tetrahydro-1H-indazol-1-yl)-N-(2-(3,5-difluorophenyl)-1-(2,2″-dioxo-1,1″,2,2″-tetrahydro-[4,2′:5′,4″-terpyridin]-6′-yl)ethyl)acetamide], which inhibition at 2 µM (HIV-IIIb) is on record?
Answer: 0%

Question: What about the CC50 at 5 days [1] of the same molecule?
Answer: > 53.2 µM

Question: What does the source list for `CC(C)(O)C#Cc1ccc(-c2cccc3c2CNC3=O)c([C@H](Cc2cc(F)cc(F)c2)NC(=O)Cn2nc(C(F)(F)F)c3c2C(F)(F)[C@@H]2C[C@H]32)n1` [Compound 14E, 2-((3bS,4aR)-5,5-difluoro-3-(trifluoromethyl)-3b,4,4a,5-tetrahydro-1H-cyclopropa[3,4]cyclopenta[1,2-c]pyrazol-1-yl)-N—((S)-2-(3,5-difluorophenyl)-1-(6-(3-hydroxy-3-methylbut-1-yn-1-yl)-3-(1-oxoisoindolin-4-yl)pyridin-2-yl)ethyl)acetamide]?
Answer: inhibition at 2 µM (HIV-IIIb): 89%; CC50 at 5 days [1]: 6.82 µM

Question: For `O=C(Cn1nc(C(F)F)c2c1C(F)(F)CCC2(F)F)N[C@@H](Cc1cc(F)cc(F)c1)c1nc(-c2c[nH]nn2)ccc1-c1cnc2[nH]ccc2c1` [Compound 16C], which “% inhibition at 2 μM (percent inhibition of virus-induced cell killing)” value (HIV-IIIb; 2 μM drug concentration) is on record?
Answer: 65%

Question: With `CC(C)(O)C#Cc1ccc(-c2cccc3c(=O)[nH]c(=O)[nH]c23)c([C@H](Cc2cc(F)cc(F)c2)NC(=O)Cn2nc(C(F)(F)F)c3c2C(F)(F)[C@@H]2C[C@H]32)n1` [Compound 17, 2-((3bS,4aR)-5,5-difluoro-3-(trifluoromethyl)-3b,4,4a,5-tetrahydro-1H-cyclopropa[3,4]cyclopenta[1,2-c]pyrazol-1-yl)-N—((S)-2-(3,5-difluorophenyl)-1-(3-(2,4-dioxo-1,2,3,4-tetrahydroquinazolin-8-yl)-6-(3-hydroxy-3-methylbut-1-ynyl)pyridin-2-yl)ethyl)acetamide] as the molecule, how does the inhibition at 2 µM (HIV-IIIb) read?
Answer: 80%

Question: What about the CC50 at 5 days [1] of the same molecule?
Answer: 12.6 µM

Question: With `CC(C)(O)C#Cc1ccc(-c2ccc(F)c(C(N)=O)c2)c([C@H](Cc2cc(F)cc(F)c2)NC(=O)Cn2nc(C(F)(F)F)c3c2C(F)(F)[C@@H]2C[C@H]32)n1` [Compound 18, 5-(2-((S)-1-(2-((3bS,4aR)-5,5-difluoro-3-(trifluoromethyl)-3b,4,4a,5-tetrahydro-1H-cyclopropa[3,4]cyclopenta[1,2-c]pyrazol-1-yl)acetamido)-2-(3,5-difluorophenyl)ethyl)-6-(3-hydroxy-3-methylbut-1-yn-1-yl)pyridin-3-yl)-2-fluorobenzamide] as the molecule, how does the CC50 at 5 days [1] read?
Answer: 6.93 µM
